Measured values taken from patent publication US20090104128A1, “Denture adhesive compositions with anti-ucler agents” (Orahealth Corporation, priority 2007, published 2009).

Test system: mouth ulcers
Experiment: tests of cobalamin forms for treatment of mouth ulcers
Type: in vivo
Settings: compared with other cobalamin forms (cyanocobalamin, hydroxocobalamin); tests not described

C/C1=C2/[N-][C@H]([C@H](CC(N)=O)[C@@]2(C)CCC(=O)NC[C@@H](C)OP(=O)([O-])O[C@H]2[C@@H](O)[C@@H](n3cnc4cc(C)c(C)cc43)O[C@@H]2CO)[C@]2(C)N=C(/C(C)=C3N=C(/C=C4N=C1[C@@H](CCC(N)=O)C\4(C)C)[C@@H](CCC(N)=O)[C@]\3(C)CC(N)=O)[C@@H](CCC(N)=O)[C@]2(C)CC(N)=O.[CH3-].[Co+3] [Methylcobalamin, methylcobalamin]
treatment of mouth ulcers: superior
